The text below walks through data of paper PMC9856062, “Nano-Zirconium Dioxide Catalyzed Multicomponent Synthesis of Bioactive Pyranopyrazoles That Target Cyclin Dependent Kinase 1 in Human Breast Cancer Cells” (Biomedicines, 2023).

In one series the test system is MCF-7 cells. In words: MCF-7 cell viability assay (Alamar Blue). Format: cell-based, human. The settings on record: for IC50: MCF-7 cells; for effect on viability of MCF-7 cells: 0, 0.01, 0.1, 10, and 100 µM. Here is the method:
We obtained MCF-7 cells from Procell Life Science and Technology. A humidified atmosphere of 5% CO2 was maintained at 37 °C for the culture of MCF-7 cells (2000) in MEM or Leibovitz’s L-15 medium enriched with 2% FBS [21, 22, 23, 24]. DMSO was used to prepare a stock solution of pyranopyrazoles, and the stock solution was then diluted with culture medium to achieve the desired concentration. […] Incubation with AlamarBlue assay reagent was performed for a further 4 h. According to the established protocol, the IC50 values of compounds were determined in the absence and presence of pyranopyrazoles.
Figure 4 Loss of MCF-7 cell viability produced by compounds 5b 5d, and 5f. MCF-7 cells were exposed to 5b (A), 5d (B), and 5f (C) for 72 h and the viability of cells was analyzed by Alamar Blue assays. The results are presented as mean ± S.E.M. of triplicate determinations.

Another series concerns T47D. As to the kind of experiment: Breast cancer cell proliferation, Alamar Blue, T47D. It counts as cell-based. To be noted: Homo sapiens, 72 h; T47D cells, 2% FBS medium, 3 days.
The test system of a further series is BT-474 cells. In words: Breast cancer cell proliferation, Alamar Blue, BT-474. It counts as cell-based. To be noted: Homo sapiens, 72 h, 2% FBS medium, 3 days.
For a further series, the system named is SKBR3. As to the kind of experiment: Breast cancer cell proliferation, Alamar Blue, SKBR3. Format: cell-based. The settings on record: Homo sapiens, SK-BR-3, 72 h; SKBR3 cells, 2% FBS medium, 3 days.
A further series deals with MDA-MB-231. In words: Breast cancer cell proliferation, Alamar Blue, MDA-MB-231. Format: cell-based. To be noted: Homo sapiens, 72 h; MDA-MB-231 cells, 2% FBS medium, 3 days. In general terms: Resazurin is reduced to fluorescent resorufin, in cell work by metabolically active cells.
For the next series, the system named is MCF-10A cells. In words: Cytotoxicity to normal breast cells, Alamar Blue, MCF-10A. It counts as cell-based. To be noted: Homo sapiens, 72 h; MCF-10A normal breast cells, 2% FBS medium, 3 days.
Series [1] concerns the target T1, CDK1 (Homo sapiens, UniProt P06493). In words: CDK1 kinase assay (ADP-Glo / Kinase-Glo luminescence). Format: biochemical. On the set-up: 1 mg of CDK1 antibodies were used to immunoprecipitate 1 mg of protein from the total cell lysate; endogenous in cells; host or cells: total cell lysate. The method, then:
Promega’s Kinase-Glo luminescence assay was used for detection of CDK1 activity. IgG was used as a negative control, and 1 mg of CDK1 antibodies were used to immunoprecipitate 1 mg of protein from the total cell lysate. At […], the reaction mixture was incubated for three hours and subsequently, beads were washed three times with lysis buffer, following overnight incubation at […]. The reactant beads were added to […] kinase reaction buffer containing 0.2 mM ATP, 2 mM DTT, 0.1 mg/mL BSA, 20 mM MgCl2, and 40 mM Tris-HCl, and beads were resuspended for 30 min at room temperature with a CDK1/2 specific substrate (p53). A total of 10 µl of ADP-GLO reagent and […] of kinase detection reagent were added to the reaction for 40 min at room temperature and 5 min at room temperature, respectively. […]
Since the ADP-GloTM Kinase Assay uses multiple enzymes as components, it should not generate a high rate of interference or false responses when screening pyranopyrazoles anti-CDK1 activity. […] Based on the luminescence units for compounds 5b and 5f, Figure 8 illustrates the standard curves generated for inhibition of cdk1 activity by pyranopyrazoles at different concentrations. […]
Figure 8 In vitro inhibition of CDK1 by compounds 5b (A) and 5f (B). The inhibitory effect of pyranopyrazoles on CKD1 measured using ADP−Glo™ reagent. […]
On the technique in general: ADP-Glo turns the ADP formed in a reaction into a luminescent signal.

Series [2] concerns the target T1, CDK1. Also noted: method as in PMID 34156352. To be noted: literature value; cited from earlier work.

Values joined by “and” are separate entries in the source; they are usually repeats but may differ in a detail not shown here. Equal entries are not always repeated. Where two headings read alike, the source gives them in different places.

T1 sequence (P06493 whole entry): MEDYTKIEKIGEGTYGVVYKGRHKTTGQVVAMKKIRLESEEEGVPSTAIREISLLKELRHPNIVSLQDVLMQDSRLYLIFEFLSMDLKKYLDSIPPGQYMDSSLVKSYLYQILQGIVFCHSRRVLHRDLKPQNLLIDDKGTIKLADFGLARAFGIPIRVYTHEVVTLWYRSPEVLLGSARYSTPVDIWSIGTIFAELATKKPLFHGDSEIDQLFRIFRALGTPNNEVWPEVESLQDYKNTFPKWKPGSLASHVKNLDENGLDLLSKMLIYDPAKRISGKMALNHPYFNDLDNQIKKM
T1 sequence (P14635 whole entry partner): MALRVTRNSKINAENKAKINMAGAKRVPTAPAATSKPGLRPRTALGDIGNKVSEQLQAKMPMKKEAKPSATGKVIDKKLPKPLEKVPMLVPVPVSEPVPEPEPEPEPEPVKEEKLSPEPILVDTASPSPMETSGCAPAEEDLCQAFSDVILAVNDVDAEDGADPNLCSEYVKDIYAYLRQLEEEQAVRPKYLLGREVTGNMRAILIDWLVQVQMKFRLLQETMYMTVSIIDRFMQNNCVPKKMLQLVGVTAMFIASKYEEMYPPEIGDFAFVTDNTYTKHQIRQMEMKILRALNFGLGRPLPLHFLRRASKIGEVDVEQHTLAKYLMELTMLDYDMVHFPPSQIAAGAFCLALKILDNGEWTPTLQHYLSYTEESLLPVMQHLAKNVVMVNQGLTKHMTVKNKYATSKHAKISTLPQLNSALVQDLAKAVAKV

For the compound `Cc1n[nH]c2c1C(c1ccc(-c3ccncc3)cc1)C(C#N)=C(N)O2` (stereo not shown) [5e, 6-Amino-3-methyl-4-(4-(pyridin-4-yl)phenyl)-1,4-dihydropyra-no [2,3-c] Pyrazole-5-carbonitrile], the melting point (usually the temperature of the solid-liquid transition) lay within 232 to 234 °C. Besides, the IC50 – broadly, the concentration that inhibits the measured activity by half – in the series with MCF-7 cells (Homo sapiens, MCF7, 72 h) is more than 100 µM. Further, in the series with T47D, the half-inhibitory concentration (IC50) is more than 100 µM. The same compound returned an IC50 in the series with BT-474 cells of 50.2 µM. Moreover, the IC50 in the series on SKBR3 is more than 100 µM. The compound also displayed an IC50 in the series on MDA-MB-231 of 22.1 µM. The compound further had an IC50 in the series on MCF-10A cells of more than 100 µM.

`Cc1cc(-c2cccc(C3C(C#N)=C(N)Oc4[nH]nc(C)c43)c2)cnc1Cl` (stereo not shown) [5d, 6-Amino-4-(3-(6-chloro-5-methylpyridin-3-yl)phenyl)-3-methyl-1,4-dihydropyrano [2,3-c] Pyrazole-5-carbonitrile] had a melting point of 212 to 214 °C. The “effect on viability of MCF-7 cells” value with MCF-7 cells (72 h) was “dose–dependent decrease”. In addition, in the series on MCF-7 cells (Homo sapiens, MCF7, 72 h), the midpoint of inhibition, the IC50, lay at 38.9 µM.

`Cc1nn(-c2ccc(Cl)cc2)c2c1C(c1cccc(-c3cncnc3)c1)C(C#N)=C(N)O2` (stereo not shown) [5g, 6-Amino-1-(4-chlorophenyl)-3-methyl-4-(3-(pyrimidin-5-yl)phenyl)-1,4-dihydropyrano [2,3-c] Pyrazole-5-carbonitrile] yielded a melting point of 242 to 243 °C.

As for `Cc1n[nH]c2c1C(c1cccc(-c3ccncc3)c1)C(C#N)=C(N)O2` (stereo not shown) [5c, 6-Amino-3-methyl-4-(3-(pyridin-4-yl)phenyl)-1,4-dihydropyrano [2,3-c] Pyrazole-5-carbonitrile], the melting point is 245 to 247 °C. In addition, the IC50 in the series with T47D turned out to be 33.7 µM. The IC50 in the series on BT-474 cells was found to be 21.3 µM. The compound also returned a half-maximal inhibitory concentration (IC50) in the series with SKBR3 of 69.4 µM. This compound also displayed an IC50 with MDA-MB-231 of 15 µM. In the series on MCF-10A cells, this compound gave a half-inhibitory concentration (IC50) of 88.2 µM.

As for `Cc1cc(-c2ccc(C3C(C#N)=C(N)Oc4[nH]nc(C)c43)cc2)cnc1F` (stereo not shown) [5f, 6-Amino-4-(4-(6-fluoro-5-methylpyridin-3-yl)phenyl)-3-methyl-1,4-dihydropyrano [2,3-c] Pyrazole-5-carbonitrile], the melting point lay within 268 to 269 °C. The “effect on viability of MCF-7 cells” value in the series on MCF-7 cells (72 h) is “dose–dependent decrease”. The IC50 with MCF-7 cells (Homo sapiens, MCF7, 72 h) is 23.8 µM. The IC50 in the series with T47D was 45.8 µM. The compound also gave a 50% inhibitory concentration (IC50) with BT-474 cells of 15.2 µM. This compound also came in with a half-inhibitory concentration (IC50) in the series on SKBR3 of more than 100 µM. In the series with MDA-MB-231, this compound came in with an IC50 of 19.1 µM. This compound registered a concentration for half-maximal inhibition (IC50) in the series on MCF-10A cells of more than 100 µM. The compound further gave an IC50 against CDK1 [1] of 7.16 µM.

Consider `O=C(c1cc(Cc2n[nH]c(=O)c3ccccc23)ccc1F)N1CCN(C(=O)C2CC2)CC1` [Olaparib, reference compound], for which, in the series with MCF-7 cells (Homo sapiens, MCF7, 72 h), it took 3.28 µM to reach half-maximal inhibition (IC50).

`Cc1n[nH]c2c1C(c1ccc(-c3cncnc3)cc1)C(C#N)=C(N)O2` (stereo not shown) [5a, 6-Amino-3-methyl-4-(4-(pyrimidin-5-yl)phenyl)-1,4-dihydropy-rano [2,3-c] Pyrazole-5-carbonitrile] came in with a melting point of 196 to 198 °C. The same compound showed an IC50 in the series with MCF-7 cells (Homo sapiens, MCF7, 72 h) of 55 µM.

For the compound `CC(C)CC(=O)Nc1[nH]nc2c1CN(C(=O)C1CCN(C)CC1)C2(C)C` [PHA-793887], on CDK1 [2], the IC50 was 0.06 µM.

Consider `Cc1cc(-c2cccc(C3C(C#N)=C(N)Oc4[nH]nc(C)c43)c2)cnc1F` (stereo not shown) [5b, 6-Amino-4-(3-(6-fluoro-5-methylpyridin-3-yl)phenyl)-3-methyl-1,4-dihydropyrano [2,3-c] Pyrazole-5-carbonitrile], for which the melting point lay within 214 to 215 °C. In the series on MCF-7 cells (72 h), the “effect on viability of MCF-7 cells” value is “dose–dependent decrease”; the concentration for half-maximal inhibition (IC50) is 17.2 µM and 17 µM. In addition, 17.8 µM corresponded to half-maximal inhibition in the series on MCF-7 cells (Homo sapiens, MCF7, 72 h) (IC50). Inhibition in the series with T47D was half-maximal at 27.5 µM (IC50). The midpoint of inhibition in the series with BT-474 cells, the IC50, lay at 23.7 µM. This compound also displayed an IC50 in the series with SKBR3 of more than 100 µM. In the series with MDA-MB-231, this compound displayed an IC50 of 13.5 µM. Moreover, the IC50 in the series with MCF-10A cells was determined as 90.5 µM. At CDK1 [1], this compound yielded a half-maximal inhibitory concentration (IC50) of 0.96 µM.
